Measurements as given in BindingDB's records for doi:10.1021/cb500355c (2015).

These molecules were tested against RAC-alpha serine/threonine-protein kinase [E49C,C296S,C310S,C344S] (Homo sapiens, UniProt P31749, C296S/C310S/C344S/E49C) (assay: iFLik Assay). Settings: pH 7.4.
Protocol: Labeled Akt1 was diluted to 200 nM in the measurement buffer consisting of 50 mMHEPES pH 7.4, 200 mM NaCl, and 0.01% Triton-X 100. Dilution series of candidate compounds were prepared in DMSO at 21× the final desired concentration. Compounds (0.5 μL) were then mixed with labeled Akt1 (10 μL) in triplicate and with measurement buffer alone (background fluorescence control) in quadruplicate at 12different concentrations. The final compound concentrations ranged from 0.8 nM to 500 μM and each well contained 5% v/v DMSO after mixing. Plates were then covered with an adhesive plastic foil and incubated for 2 h at RT prior to measurement of emission intensities at fluorophore-specific wavelengths

Chain of RAC-alpha serine/threonine-protein kinase [E49C,C296S,C310S,C344S] (P31749 whole entry E49C/C296S/C310S/C344S): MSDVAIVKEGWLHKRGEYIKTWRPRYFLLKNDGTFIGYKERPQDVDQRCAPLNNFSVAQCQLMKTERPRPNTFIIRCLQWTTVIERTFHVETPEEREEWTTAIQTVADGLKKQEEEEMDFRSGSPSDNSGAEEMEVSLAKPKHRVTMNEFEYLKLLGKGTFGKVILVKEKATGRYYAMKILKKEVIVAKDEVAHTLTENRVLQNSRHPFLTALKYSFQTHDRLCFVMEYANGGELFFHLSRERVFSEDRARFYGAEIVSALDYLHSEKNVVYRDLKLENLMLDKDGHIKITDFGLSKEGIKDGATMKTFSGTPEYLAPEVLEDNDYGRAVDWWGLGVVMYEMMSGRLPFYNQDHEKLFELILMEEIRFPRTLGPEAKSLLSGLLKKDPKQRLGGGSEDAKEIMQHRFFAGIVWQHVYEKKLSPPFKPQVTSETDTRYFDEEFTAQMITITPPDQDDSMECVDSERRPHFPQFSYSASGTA

SMILES | Kd [µM]
O=c1[nH]ccc2nc(-c3ccc(CN4CCC(n5c(=O)[nH]c6ccccc65)CC4)cc3)c(-c3ccccc3)cc12 [2-(4-((4-(2-Oxo-2,3-dihydro-1H-benzo[d]imidazol-1-yl)piperidin-1-yl)methyl)phenyl)-3-phenyl-1,6-naphthyridin-5(6H)-one (7a)] | 0.41
COc1ccc(N2CCN(Cc3ccc(-c4nc5cc[nH]c(=O)c5cc4-c4ccccc4)cc3)CC2)cc1 [2-(4-((4-(4-Methoxyphenyl)piperazin-1-yl)methyl)phenyl)-3-phenyl-1,6-naphthyridin-5(6H)-one (7e)] | 7.2
O=c1[nH]ccc2nc(-c3ccc(CN4CCC(n5c(=O)[nH]c6cc(Cl)ccc65)CC4)cc3)c(-c3ccccc3)cc12 [2-(4-((4-(5-Chloro-2-oxo-2,3-dihydro-1H-benzo[d]imidazol-1-yl)piperidin-1-yl)methyl)phenyl)-3-phenyl-1,6-naphthyridin-5(6H)-one (7b)] | 0.15
O=c1[nH]ccc2nc(-c3ccc(CN4CCN(c5ncccn5)CC4)cc3)c(-c3ccccc3)cc12 [3-Phenyl-2-(4-((4-(pyrimidin-2-yl)piperazin-1-yl)methyl)phenyl)-1,6-naphthyridin-5(6H)-one (7f)] | 1.1
O=C(C1CCCO1)N1CCN(Cc2ccc(-c3nc4cc[nH]c(=O)c4cc3-c3ccccc3)cc2)CC1 (centres undefined) [3-Phenyl-2-(4-((4-(tetrahydrofuran-2-carbonyl)piperazin-1-yl)methyl)phenyl)-1,6-naphthyridin-5(6H)-one (7g)] | 8
Cc1ccc(-n2cc(-c3ccccc3)c3c(NCc4cccs4)ncnc32)cc1Cl [7-(3-chloro-4-methylphenyl)-5-phenyl-N-(thiophen-2-ylmethyl)-7H-pyrrolo[2,3-d]pyrimidin-4-amine (8g)] | 264
Cc1cccc(-n2cc(-c3ccccc3)c3c(NCc4cccs4)ncnc32)c1 [7-(3-methylphenyl)-5-phenyl-N-(thiophen-2-ylmethyl)-7H-pyrrolo[2,3-d]pyrimidin-4-amine (8e)] | 99
Fc1ccc(-n2cc(-c3ccccc3)c3c(NCc4ccccn4)ncnc32)cc1 [7-(4-fluorophenyl)-5-phenyl-N-(pyridin-2-ylmethyl)-7H-pyrrolo[2,3-d]pyrimidin-4-amine (8c)] | 20
Cc1ccc(-n2cc(-c3ccccc3)c3c(NCc4cccnc4)ncnc32)cc1 [7-(4-methylphenyl)-5-phenyl-N-(pyridin-3-ylmethyl)-7H-pyrrolo[2,3-d]pyrimidin-4-amine (8b)] | 7.8

Further lines, results first:

Kd [µM] | SMILES
6 | O=c1[nH]ccc2nc(-c3ccc(CN4CCc5ccccc5C4)cc3)c(-c3ccccc3)cc12 [2-(4-((3,4-Dihydroisoquinolin-2(1H)-yl)methyl)phenyl)-3-phenyl-1,6-naphthyridin-5(6H)-one (7c)]
2.2 | c1ccc(-c2cn(-c3ccccc3)c3ncnc(NCc4cccs4)c23)cc1 [5,7-diphenyl-N-(thiophen-2-ylmethyl)-7H-pyrrolo[2,3-d]pyrimidin-4-amine (8d)]
2.2 | Cc1ccc(-n2cc(-c3ccccc3)c3c(NCc4cccs4)ncnc32)cc1 [7-(4-methylphenyl)-5-phenyl-N-(thiophen-2-ylmethyl)-7H-pyrrolo[2,3-d]pyrimidin-4-amine (8a)]
0.9 | COC(=O)C1CCN(Cc2ccc(-c3nc4cc[nH]c(=O)c4cc3-c3ccccc3)cc2)CC1 [Methyl 1-(4-(5-oxo-3-phenyl-5,6-dihydro-1,6-naphthyridin-2-yl)benzyl)piperidine-4-carboxylate (7d)]
6 | Cc1ccc(-n2cc(-c3ccccc3)c3c(NCc4ccccc4)ncnc32)cc1 [N-benzyl-7-(4-methylphenyl)-5-phenyl-7H-pyrrolo[2,3-d]pyrimidin-4-amine (8f)]
